Experimental data from patent publication US20180049996A1, “THERAPEUTIC AGENT FOR CHRONIC RESPIRATORY DISEASE AND COMPOSITION FOR INHIBITING CARDIAC FIBROSIS” (NIPPON HYPOX LABORATORIES INCORPORATED, priority 2015, published 2018).

How the values were obtained:
[1] = system: Pulmonary Fibrosis Induced by Bleomycin; assay: Body weight and relative weight of lungs, pulmonary fibrosis induced by bleomycin; type: in vivo, male SD rats; conditions: test groups 2 and 3: bleomycin 7.5 mg/kg + HTHQ 50 or 200 mg/kg/day oral; day 20; compared to bleomycin-single group, p<0.05
Method: Bleomycin is used to produce disease-model animals of interstitial pneumonia. The bleomycin and 2,3,5-trimethylhydroquinone-1-hexyl ether (HTHQ) as the hydroquinone derivative represented by the general formula (1) described above of the present invention were simultaneously administered to male SD rats of 10 week old after birth to examine the effect of the action. The test groups consisted of the control group to which sterile saline was administered; test group 1 to which bleomycin (7.5 mg/kg body weight) alone was administered; test group 2 to which bleomycin (7.5 mg/kg body weight) and HTHQ (50 mg/kg body weight/day) were administered in combination; and test group 3 to which bleomycin (7.5 mg/kg body weight) and HTHQ (200 mg/kg body weight/day) were administered in combination.
In test groups 1 to 3, bleomycin was orally administered in a single dose. In test groups 2 and 3, 2,3,5-trimethylhydroquinone-1-hexyl ether (HTHQ) was daily orally administered for 10 or 20 days starting from 24 h after the administration of bleomycin. In test group 1, olive oil, which was used as a solvent of HTHQ, was daily orally administered at 10 mL/kg/day starting from 24 h after the administration of bleomycin. The number of animals in each group was 16. 8 animals of each group were sacrificed on days 10 and 20 after the administration of bleomycin and measurement of body weight, lung autopsy, histopathologic examination of lungs and bronchoalveolar lavage examination were conducted.
The body weight of the rats in the control group increased over time during the test period. […] The weight of the interstitial tissue of lungs tends to increase and the relative weight of lungs tends to rise when the tissue fibroses. […] Thus, it was expected that the degree of the progression of pulmonary fibrosis of the rats in test groups 2 and 3, to which HTHQ was administered, was less than the rats in test group 1.

IL-4 = IL-4 level in BAL fluid (ELISA), ovalbumin asthma model; type: in vivo, BALB/c female mice; conditions: HTHQ 20 and 40 mg/kg/day oral; compared to OVA group
Method: 6 week old BALB/c female mice were purchased and the mice were divided into 5 groups with 5 animals per group shown in Table 3 below after habituation breeding of about 2 weeks.
The test was conducted on the schedule of sensitization, causing diseases and administration of test materials shown in FIG. 12. “IP” in FIG. 12 refers to ovalbumin sensitization treatment by the intraperitoneal administration of ovalbumin/aluminum hydroxide, and “IH” refers to inhalation exposure treatment of ovalbumin, and “PO” refers to the administration of the test materials. […]
All mice were euthanized by intraperitoneal injection of pentobarbital (Hanrimu pharmaceutical, South Korea) at 50 mg/kg and the bronchi were excised on day 25 of the test. […] After preparing slide samples from 100 μL of BAL cell fluid using Cytospin (4° C., 1000 rpm×5 min), the cell numbers of inflammatory cells (eosinophils, macrophages, lymphocytes and neutrophils) present in the BAL fluid were counted using a Diff-Quik stain kit.
The supernatant of the BAL fluid stored was taken out of the super-cryostat and IL-4, IL-5 and IL-13 levels were measured as the pro-inflammatory cytokine contents in the supernatant of the BAL fluid. A quantitative ELISA kit (a product from R&D systems) and a microplate reader (a product from Bio-Rad Laboratories, Inc.) were used for the measurement and the measurement wavelength was 450 nm.

[2] = system: Myocardial Disorder Induced by Doxorubicin; assay: Histopathologic examination of the hearts (transmission electron microscope), myocardial disorder induced by doxorubicin; type: in vivo, female SD rats; conditions: Test group 2: doxorubicin + HTHQ 50 mg/kg; day 7
Method: Doxorubicin is used to produce disease-model animals of cardiomyopathy. The doxorubicin and 2,3,5-trimethylhydroquinone-1-hexyl ether (HTHQ) as the hydroquinone derivative represented by the general formula (1) described above of the present invention were simultaneously administered to female SD rats of 4 week old after birth to examine the effect of the action. The test groups consisted of the control group to which sterile saline was administered; test group 1 to which doxorubicin (13 mg/kg body weight) alone was administered; test group 2 to which doxorubicin (13 mg/kg body weight) and HTHQ (50 mg/kg body weight) were administered in combination; and test group 3 to which doxorubicin (13 mg/kg body weight), HTHQ (50 mg/kg body weight) and recombinant human erythropoietin (400 IU/kg body weight) were administered in combination. […] The test group 3 is used to confirm the presence or absence of the inhibitory effect brought about by combining HTHQ and rHuEPO on myocardial disorder.
Doxorubicin was orally administered in a single dose to the rats in test groups 1 to 3. 2,3,5-trimethylhydroquinone-1-hexyl ether (HTHQ) was orally administered to the rats in test groups 2 and 3 twice in total: 3 days before the administration of doxorubicin and on the day of the administration. […]

CCCCCCOc1cc(C)c(O)c(C)c1C [HTHQ, 2,3,5-trimethylhydroquinone-1-hexyl ether]
relative weight of lungs [1]: significantly low
IL-4 content in BAL fluid (IL-4): significantly reduced
findings in myocardial cells (transmission electron microscope) [2]: loss of striations was alleviated
